Source: patent publication US12357680B2, “Inhibition of histone methyl transferases to treat cancer” (Albert-Ludwigs-Universitat Freiburg, priority 2018, dated 2025)

Experiments:
[1] = tested on: LNCaP prostate tumour cells; assay: Cell proliferation, xCelligence RTCA; format: cell-based, human
Procedure: (§1) Compound 75b was tested in a proliferation assay in cell culture as described in the following. Thus, compound 75b (alternatively referred to as “KMI95423411”) was added to a final concentration of 30 μM (in the controls, DMSO as added) to cells of the following cell lines: LNCaP, SW-480, A549, MDA-MB-468 and HepG2, and the cells were cultured in the presence of inhibitor or DMSO. At the time points indicated in FIG. 15, the cells were seeded in E-plates and the cell proliferation was determined using the xCelligence RTCA system (Roche) as described below.
(§2) Cell proliferation, migration and invastion were determined using the X-Celligence RTCA system (Roche). pLenti-LacZ, pLenti-KMT9α, pLenti-KMT9α(N122A), pLenti-KMT9α(Y125A) pLenti-ETF1, pLenti-shLaZ, and pLenti-shKMT9α constructs were used to produce recombinant lentiviruses to infect LNCaP and PC-3M cells as described in Metzger et al., 2005. For real-time recording of LNCaP, LNCaP-abl, LNCaP-abl EnzaR, and C4-2B cell proliferation, 20000 cells/well were seeded in 16 well E-plates (Roche). For PC-3M, 2500 cells/well were used. For DuCaP EnzaR, LAPC4 and LAPC4 EnzaR, 40000 cells/well were used. Cells were transfected with the indicated siRNAs in presence of Dharmafect 1 (LNCaP-abl, LAPC4, LAPC4 EnzaR; Dharmacon), Dharmafect 2 (LNCaP, PC-3M), or RNAiMAx (C4-2B, LNCaP-abl EnzaR, DuCaP EnzaR; Caco-2, HT-29, SK-N-SH, SW620, SW480, HT-29, HT-115, HCT116 p53+/+ and HCT p53−/−; Life Technologies) 24 h before seeding in E-plates. Cell indices were automatically recorded every 15 minutes. Relative velocities represent the change of the cell index over time. The sequences of the siRNAs (Stealth RNAi™ siRNAs; Life Technologies) used in the experiments are as following: siCtrl: […]

[2] = tested on: SW-480 colorectal cancer cells; assay: Cell proliferation, xCelligence RTCA; format: cell-based, human; details: final concentration of 30 μM, vs DMSO
Procedure: as §1, §2

HepG2 cells = assay: Cell proliferation, xCelligence RTCA; format: cell-based; details: final concentration of 30 μM, vs DMSO; KMT9 non-responsive cells
Procedure: as §1, §2

A549 lung tumour cells = assay: Cell proliferation, xCelligence RTCA; format: cell-based; details: final concentration of 30 μM, vs DMSO
Procedure: as §1, §2

[3] = tested on: MDA-MB-468 breast cancer cells; assay: Cell proliferation, xCelligence RTCA; format: cell-based; details: final concentration of 30 μM, vs DMSO
Procedure: as §1, §2

[4] = target: recombinant KMT9 (C21orf127/TRMT112) (Homo sapiens (Human), UniProt Q9Y5N5); assay: Histone H4 methylation assay with SAM[3H], autoradiography; format: biochemical; details: histone H4, SAM[3H]
Sequence of recombinant KMT9 (C21orf127/TRMT112) (Q9Y5N5 whole entry): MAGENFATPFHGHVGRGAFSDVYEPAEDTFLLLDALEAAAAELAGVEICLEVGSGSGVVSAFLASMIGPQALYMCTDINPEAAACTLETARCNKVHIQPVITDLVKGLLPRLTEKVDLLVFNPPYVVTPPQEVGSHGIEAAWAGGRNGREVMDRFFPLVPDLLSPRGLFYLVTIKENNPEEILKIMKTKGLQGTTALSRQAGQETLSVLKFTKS
Sequence of recombinant KMT9 (C21orf127/TRMT112) (Q9UI30 whole entry partner): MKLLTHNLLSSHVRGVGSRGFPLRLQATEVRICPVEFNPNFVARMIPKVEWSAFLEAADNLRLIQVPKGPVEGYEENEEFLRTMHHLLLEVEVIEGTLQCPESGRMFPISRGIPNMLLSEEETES
Procedure: FIG. 1 C21orf127/TRMT112 methylates histone H4 at K12. (A to C) Methylation assays. (A) Histone H4, H3, H2A, H2B, and H1 were incubated with SAM[^3H] in the absence or presence of recombinant C21orf127/TRMT112. (B) Wild-type or mutant histone H4 were incubated with SAM[3H] in the presence of recombinant C21orf127/TRMT112. Proteins were stained by Ponceau red. […] (C) Histone H4 was incubated with C21orf127/TRMT112, SAM[^3H], and the SAM competitive inhibitor sinefungin as indicated. Proteins were stained by Ponceau red.
FIG. 9. […] Histone H4 (2 μg) was incubated with SAM[3H] in the presence of recombinant KMT9 (KMT9α and KMT90) and the three afore-mentioned inhibitors as indicated.
It was tested in this example whether the known DOT1L-inhibitors EPZ5676, SGC0946 and EPZ004777 (which are commercially available) are capable of inhibiting KMT9. To this aim, histone H4 was incubated with SAM[^3H] in the presence of recombinant KMT9 (provided in the form of the heterodimer of KMT9α and KMT90) and the three afore-mentioned inhibitors.
Four to eight μg of purified recombinant His-C21orf127, His-C21orf127/TRMT112, His-C21orf127(D103A)/TRMT112, His-C21orf127(N122A)/TRMT112, His-C21orf127(Y125A)/TRMT112, His-TRMT112, WBSCR22/TRMT112, His-TRMT11, His-TRMT12, His-KIAA1456, His-TRMT5, His-METTL27, His-METTL21A and His-METTL21B were incubated either with 4 μg core histones or 2 μg of histones H4, H3, H2A, H2B, H1 (BPS Bioscience), histone H4K12A, or His-ETF1 as indicated in methylation buffer (10 mM Tris-HCl pH 7.6, 50 mM KCl, 10 mM Mg(OAc)2, 1 mM DTT) supplemented as indicated with 1.5 μM SAM or 1.5 μl of radioactively labelled [^3H]SAM for 60 min (METTL21A: 300 minutes, METTL21B: 18 h) at 30° C. For mass spectrometry analysis, 2 μg of histone H4 were incubated overnight with 2 μg of His-C21orf127/TRMT112 in presence of SAM, heavy SAM, or SAM/heavy SAM mixture. The reaction mixture was analysed by autoradiography, Western blotting, or mass spectrometry.

NSD3 = NSD3 (Homo sapiens (Human), UniProt Q9BZ95); assay: Methyltransferase panel, 10-dose IC50 mode; format: biochemical; details: Substrate: Nucleosomes; 1 μM SAM; read-out: Control IC50*
Sequence of NSD3 (Q9BZ95 whole entry): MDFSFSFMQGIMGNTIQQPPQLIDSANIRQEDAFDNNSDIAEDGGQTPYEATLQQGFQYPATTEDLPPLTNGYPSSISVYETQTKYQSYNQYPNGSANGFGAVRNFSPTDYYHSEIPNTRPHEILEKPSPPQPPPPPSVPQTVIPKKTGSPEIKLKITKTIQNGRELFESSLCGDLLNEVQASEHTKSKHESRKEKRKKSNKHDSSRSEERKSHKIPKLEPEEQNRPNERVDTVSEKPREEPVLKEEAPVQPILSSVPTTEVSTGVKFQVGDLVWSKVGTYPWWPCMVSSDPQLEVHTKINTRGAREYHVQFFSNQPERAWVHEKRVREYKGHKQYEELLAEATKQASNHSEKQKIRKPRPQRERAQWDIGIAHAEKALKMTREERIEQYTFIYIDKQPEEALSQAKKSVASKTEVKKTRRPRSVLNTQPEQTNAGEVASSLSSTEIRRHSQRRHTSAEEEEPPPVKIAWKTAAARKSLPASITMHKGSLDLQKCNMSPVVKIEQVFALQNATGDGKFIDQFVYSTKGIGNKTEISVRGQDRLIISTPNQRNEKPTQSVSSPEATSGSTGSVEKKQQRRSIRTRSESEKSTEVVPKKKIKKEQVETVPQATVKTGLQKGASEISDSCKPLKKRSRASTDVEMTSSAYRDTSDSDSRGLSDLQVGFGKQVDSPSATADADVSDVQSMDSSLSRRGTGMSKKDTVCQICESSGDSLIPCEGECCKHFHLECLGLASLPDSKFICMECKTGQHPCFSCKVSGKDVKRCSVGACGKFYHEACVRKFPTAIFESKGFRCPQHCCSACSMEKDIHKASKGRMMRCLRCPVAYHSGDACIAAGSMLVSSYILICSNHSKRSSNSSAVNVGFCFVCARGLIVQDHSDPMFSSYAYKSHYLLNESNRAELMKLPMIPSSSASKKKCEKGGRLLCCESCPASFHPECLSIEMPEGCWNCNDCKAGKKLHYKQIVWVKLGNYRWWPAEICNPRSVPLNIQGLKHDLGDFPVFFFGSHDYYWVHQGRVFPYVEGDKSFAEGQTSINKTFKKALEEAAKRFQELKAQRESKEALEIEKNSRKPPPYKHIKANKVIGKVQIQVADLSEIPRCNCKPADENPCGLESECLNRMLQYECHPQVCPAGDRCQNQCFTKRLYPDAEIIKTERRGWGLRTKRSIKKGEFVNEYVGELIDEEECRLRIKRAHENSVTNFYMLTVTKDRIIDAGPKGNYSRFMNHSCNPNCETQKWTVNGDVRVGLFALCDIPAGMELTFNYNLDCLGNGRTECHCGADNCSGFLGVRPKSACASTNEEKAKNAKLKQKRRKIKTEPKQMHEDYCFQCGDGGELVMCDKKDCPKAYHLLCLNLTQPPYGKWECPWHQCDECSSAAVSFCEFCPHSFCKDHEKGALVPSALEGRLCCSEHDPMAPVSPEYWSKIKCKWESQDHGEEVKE
Procedure: (§3) Compound 72b was further tested against a plurality of methyltransferases as described in the following. […] Reactions were carried out at 1 μM SAM. Curve fits were performed where the enzyme activities at the highest concentration of compounds were less than 65%. […] Compound 72b is referred to as KMI9542321 in the table below.

PRDM9 = PRDM9 (Homo sapiens (Human), UniProt Q9NQV7); assay: Methyltransferase panel, 10-dose IC50 mode; format: biochemical; details: Substrate: Histone H3; 1 μM SAM; read-out: Control IC50*
Sequence of PRDM9 (Q9NQV7 whole entry): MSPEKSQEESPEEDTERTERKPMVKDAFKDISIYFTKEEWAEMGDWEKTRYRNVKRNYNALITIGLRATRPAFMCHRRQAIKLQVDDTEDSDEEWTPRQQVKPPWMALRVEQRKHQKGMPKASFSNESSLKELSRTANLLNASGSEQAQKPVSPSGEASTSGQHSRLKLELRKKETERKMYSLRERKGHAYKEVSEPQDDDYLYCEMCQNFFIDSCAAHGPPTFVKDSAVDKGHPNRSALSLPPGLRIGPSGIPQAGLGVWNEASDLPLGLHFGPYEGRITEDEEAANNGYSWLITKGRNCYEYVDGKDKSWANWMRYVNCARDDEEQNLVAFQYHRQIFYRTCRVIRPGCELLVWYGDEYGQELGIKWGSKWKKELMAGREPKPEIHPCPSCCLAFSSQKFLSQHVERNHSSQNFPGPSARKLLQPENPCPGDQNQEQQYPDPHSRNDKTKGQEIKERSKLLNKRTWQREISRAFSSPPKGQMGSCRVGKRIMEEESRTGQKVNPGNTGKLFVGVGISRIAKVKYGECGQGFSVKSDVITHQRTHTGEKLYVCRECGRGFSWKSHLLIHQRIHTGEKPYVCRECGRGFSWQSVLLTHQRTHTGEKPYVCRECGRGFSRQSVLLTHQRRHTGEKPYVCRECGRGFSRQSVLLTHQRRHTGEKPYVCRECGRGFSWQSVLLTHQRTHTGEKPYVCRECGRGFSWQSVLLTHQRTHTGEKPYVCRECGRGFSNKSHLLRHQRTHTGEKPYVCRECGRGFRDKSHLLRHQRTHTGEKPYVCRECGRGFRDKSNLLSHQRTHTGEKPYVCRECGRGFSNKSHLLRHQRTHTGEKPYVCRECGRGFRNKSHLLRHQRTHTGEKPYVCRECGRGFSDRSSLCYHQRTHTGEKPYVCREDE
Procedure: as §3

ASH1L = ASH1L (Homo sapiens (Human), UniProt Q9NR48); assay: Methyltransferase panel, 10-dose IC50 mode; format: biochemical; details: Substrate: Nucleosomes; 1 μM SAM; read-out: Control IC50*
Procedure: as §3

TRMT112 = TRMT112 (Homo sapiens (Human), UniProt Q9UI30); assay: Isothermal titration calorimetry (ITC) SAM binding; details: monomeric TRMT112
Sequence of TRMT112 (Q9UI30 whole entry): as the sequence (Q9UI30 whole entry partner) above
Procedure: (§4) ITC experiments were performed at 20° C. with a MicroCal VP-ITC microcalorimeter (Malvern). […] ITC data were analysed and fitted with one-site binding model by using Origin 7.0.

C21orf127/TRMT112 = C21orf127/TRMT112 (Homo sapiens (Human), UniProt Q9Y5N5); assay: Isothermal titration calorimetry (ITC) SAM binding; details: 20° C.
Sequence of C21orf127/TRMT112 (Q9Y5N5 whole entry): as the sequence (Q9Y5N5 whole entry) above
Sequence of C21orf127/TRMT112 (Q9UI30 whole entry partner): as the sequence (Q9UI30 whole entry partner) above
Procedure: as §4

C21orf127 = C21orf127 (Homo sapiens (Human), UniProt Q9Y5N5); assay: Isothermal titration calorimetry (ITC) SAM binding; details: monomeric C21orf127
Sequence of C21orf127 (Q9Y5N5 whole entry): as the sequence (Q9Y5N5 whole entry) above
Procedure: as §4

C21orf127(D103)/TRMT112 = C21orf127(D103)/TRMT112 (Homo sapiens (Human), UniProt Q9Y5N5, D103A); assay: Isothermal titration calorimetry (ITC) SAM binding; details: mutant heterodimer
Sequence of C21orf127(D103)/TRMT112 (Q9Y5N5 whole entry D103A): as the sequence (Q9Y5N5 whole entry) above, with D103A counted along it
Sequence of C21orf127(D103)/TRMT112 (Q9UI30 whole entry partner): as the sequence (Q9UI30 whole entry partner) above
Procedure: as §4

SET8 = SET8 (Homo sapiens (Human), UniProt Q9NQR1); assay: Methyltransferase panel, 10-dose IC50 mode; format: biochemical; details: Substrate: Nucleosomes; 1 μM SAM; read-out: Control IC50*
Sequence of SET8 (Q9NQR1 whole entry): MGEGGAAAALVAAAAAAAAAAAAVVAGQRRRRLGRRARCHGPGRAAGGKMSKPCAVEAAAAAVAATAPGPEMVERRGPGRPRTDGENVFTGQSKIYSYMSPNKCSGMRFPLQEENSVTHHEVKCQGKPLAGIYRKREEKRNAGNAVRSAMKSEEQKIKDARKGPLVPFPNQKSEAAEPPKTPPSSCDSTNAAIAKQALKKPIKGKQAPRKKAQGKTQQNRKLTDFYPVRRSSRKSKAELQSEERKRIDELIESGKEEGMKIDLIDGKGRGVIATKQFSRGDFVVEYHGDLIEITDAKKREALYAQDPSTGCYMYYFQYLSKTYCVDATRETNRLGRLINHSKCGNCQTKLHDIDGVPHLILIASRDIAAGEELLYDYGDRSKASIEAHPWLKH
Procedure: as §3

LNCaP xenograft tumours = assay: Growth of xenograft tumours in NOD/SCID mice; format: in vivo; details: cells infected with lentivirus, subcutaneous, vs miRNA Ctrl
Text: (§5) It was investigated whether KMT9α loss might affect tumour growth in mice. Therefore, PC-3M and LNCaP cells were infected with lentivirus driving expression of either miRNA control (miRNA Ctrl) or miRNA against KMT9α (miRNA KMT9α) and implanted subcutaneously in the flank of immunocompromised mice. […] To investigate whether knockdown of KMT9α also blocks growth of enzalutamide-resistant tumours, LAPC4 EnzaR miCtrl and miKMT9α cells were implanted subcutaneously in the flank of immunocompromised, castrated mice.
(§6) pLenti6-miRNA Control and pLenti6-miRNA KMT9α constructs were used to produce recombinant lentiviruses to infect LNCaP, PC-3M and LAPC4 EnzaR cells as described^26. Five-week-old male severe combined immunodeficient mice were purchased from Charles River Laboratories. For tumour inoculation 5×10^6 LNCaP, 2×10^6 PC-3M, and 5×10^6 LAPC4 EnzaR cells infected with pLenti6-miRNA Control or pLenti6-miRNA KMT9α constructs were injected in NOD/SCID mice, respectively. Mice were castrated one week before injection of LAPC4 EnzaR. Cells were resuspended in 100 μl RPMI1640 mixed with 100 μl Matrigel (BD Biosciences) on ice and administered subcutaneously in the flank of each animal. The tumour size was determined by calliper measurements two times a week^24. Tumour volumes were calculated using the formula 4/3×π×r3. All experiments were performed according to the German Animal Protection Law with permission from the responsible local authorities.

[5] = tested on: LAPC4 EnzaR xenograft tumours; assay: Growth of xenograft tumours in NOD/SCID mice; format: in vivo; details: castrated mice, subcutaneous, vs miCtrl
Text: as §5, §6

PC-3M xenograft tumours = assay: Growth of xenograft tumours in NOD/SCID mice; format: in vivo; details: cells infected with lentivirus, subcutaneous, vs miRNA Ctrl
Text: as §5, §6

`CNc1ncnc2c1ccn2[C@@H]1C[C@H](CN(CCCNCCc2cccc(Oc3ccccc3)c2)CC[C@H](N)C(=O)OC)[C@@H](O)[C@H]1O` [Compound 75b, methyl (S)-2-amino-4-((((1R,2R,3S,4R)-2,3-dihydroxy-4-(4-(methylamino)-7H-pyrrolo[2,3-d]pyrimidin-7-yl)cyclopentyl)methyl)(3-((3-phenoxyphenethyl)amino)propyl)amino)butanoate] was tested, and the proliferation ([1]; final concentration of 30 μM, vs DMSO) was “blocks proliferation”, the proliferation [2] was “blocks proliferation” and the proliferation (HepG2 cells) was “does not affect proliferation”. For the same molecule, the proliferation (A549 lung tumour cells) was “blocks proliferation” and the proliferation [3] was “blocks proliferation”.

In the case of `CC(C)N(CCCNC(=O)Nc1ccc(C(C)(C)C)cc1)C[C@H]1O[C@@H](n2cc(Br)c3c(N)ncnc32)[C@H](O)[C@@H]1O` [SGC0946], the “HMT activity of KMT9 (histone H4 methylation)” value (shortened to “HMT activity of KMT9”) [4] is reported as “do not inhibit”.

`CN1C(=O)[C@@]23C[C@]4([C@]56C[C@@]78SS[C@@](CO)(C(=O)N7[C@H]5Nc5ccccc56)N(C)C8=O)c5ccccc5N[C@@H]4N2C(=O)[C@]1(CO)SS3` [Chaetocin] was tested, and the IC50 (NSD3) was 58.8 nM, the IC50 (PRDM9) was 354 nM and the IC50 (ASH1L) was 27.4 nM.

In the case of `C[S+](CC[C@H](N)C(=O)[O-])C[C@H]1O[C@@H](n2cnc3c(N)ncnc32)[C@H](O)[C@@H]1O` (stereo partly drawn) [SAM, S-adenosyl-methionine], the SAM binding (TRMT112) is reported as “no SAM binding”, the Kd (C21orf127/TRMT112) is reported as 2500 nM and the SAM binding (C21orf127) is reported as “no SAM binding”. For the same molecule, the SAM binding (C21orf127(D103)/TRMT112) was “no SAM binding”.

“siKMT9α-3′UTR: siRNA that targets the three-prime untranslated region of the endogenously transcribed KMT9α mRNA (SEQ ID NO: 4) (GGAACUACAUUAGACUUAGUGGAAA; listed as RNA, chemistry not given here)” was tested, and the proliferation ([1]; LNCaP-LacZ control cells, vs siCtrl) was “strongly impaired”.

`Cc1ccc(NC2=CC(=O)c3sc(C)nc3C2=O)cc1` [Ryuvidine] showed an IC50 (SET8) of 775 nM.

`CC(C)N(CCCNC(=O)Nc1ccc(C(C)(C)C)cc1)C[C@H]1O[C@@H](n2ccc3c(N)ncnc32)[C@H](O)[C@@H]1O` [EPZ004777] was tested, and the “HMT activity of KMT9” value [4] was “do not inhibit”.

For `CC(C)N(C[C@H]1O[C@@H](n2cnc3c(N)ncnc32)[C@H](O)[C@@H]1O)[C@H]1C[C@@H](CCc2nc3cc(C(C)(C)C)ccc3[nH]2)C1` [EPZ5676], the “HMT activity of KMT9” value [4] was “do not inhibit”.

`Nc1ncnc2c1ncn2[C@@H]1O[C@H](C[C@@H](N)CC[C@H](N)C(=O)O)[C@@H](O)[C@H]1O` [sinefungin] was tested, and the “HMT activity of KMT9” value [4] was “blocked”.

B1: miRNA KMT9α: miRNA against KMT9α expressed from lentivirus pLenti6-miRNA KMT9α (SEQ ID NO: 1, 2) (nucleic acid)
chain 1: TGCTGATGTGAACTTTGTTACAGCGTGTTTTGGCCACTGACTGACACGCTGTAAAAGTTCACAT
chain 2: CCTGATGTGAACTTTTACAGCGTGTCAGTCAGTGGCCAAAACACGCTGTAACAAAGTTCACATC
B1 was tested, and the “growth and final weight of xenografts” value (LNCaP xenograft tumours) was “strongly reduced”, the “growth and final weight of xenografts” value [5] was “strongly reduced” and the “growth and final weight of xenografts” value (PC-3M xenograft tumours) was “strongly reduced”.
